Entries after “also recorded” stand apart in the source; their conditions may differ.
Key:
[1] = test system: Akt S473 phosphorylation; assay: pS473-Akt HTRF assay; format: cell-based, Mouse
Procedure: Neuro 2A cells were seeded (4,000 cells/well) in 4 µL of DMEM with 0.5% FBS and 1x Penicillin/Streptomycin in white solid bottom tissue-culture treated 1536-well plates (Greiner, 789173-F) with MultiDrop Combi Dispenser (Thermo Scientific). The cells were incubated for 24 h at 37 °C, 5% CO2, 95% humidity. Twenty-three nL of tested compounds were transferred to each well with an automated pin-tool station (Kalypsys). Following incubation for 15 min at 37 °C, 0.5 µL IGF (500 ng/mL of final concentration) was added and incubated for additional 40 min at 37 °C. After the addition of 1.5 µL 4x lysis buffer and 15-min incubation at room temperature (25 °C), 2 µL of HTRF® conjugated antibodies (fluorophore d2 conjugated anti-Akt monoclonal antibody and Europium^3+ cryptate-labeled anti-pS473-Akt monoclonal antibody, obtained from CisBio, 1:80 dilution) were added with BioRAPTR FRD™ (Beckman Coulter). The plates were incubated at room temperature for 20 h. The signal was measured by EnVision Multilabel Plate Reader (PerkinElmer) with excitation at 330 nm, emission at 620 nm (donor) and 665 nm (acceptor). Results were calculated and analyzed in a format of the ratio 665 nm/620 nm multiplied by 10^4.
Relative activity was calculated by normalizing each HTRF signal from each sample well to the mean HTRF signal from the DMSO-only control wells.
The Library of Pharmacologically Active Compounds (LOPAC, 1280 compounds) and the Molecular Library Small Molecular Repository Library (MLSMR, 373,868 compounds) were obtained from Sigma-Aldrich.
Quantitative HTS (qHTS) and curve response class classification
The qHTS screen was performed as described previously1. Each compound was titrated in seven concentrations. The final concentrations of the compounds assayed ranged from 4.9 nM to 76.6 µM. The curve response classifications (CRC), which can be used to depict potency, efficacy and reliability of the data, and to estimate an IC50 value, were determined by a customized software2. […]
Sigma-Aldrich) and the basal response (0% inhibition) was set to the DMSO control.
Efficacy of a compound refers to the highest response normalized to the maximal response of LY. The CRCs were grouped into 4 categories. Class 1 are well-fit and have both upper and lower asymptotes with efficacy greater than 30%
(Class1.1, >80% efficacy; Class 1.2; 30-80% efficacy). Class 2 are incomplete with only one asy mptote (Class 2.1, > 80% efficacy; Class 2.2, 30-80% % efficacy). Class 3 display activity only at the highest concentrations and efficacy >30%. Class 4 are with low efficacy (<30%) or no response and considered inactive3.

[2] = test system: activated Akt; assay: Substrate peptide phosphorylation by activated Akt (ELISA-based); format: biochemical; conditions: 20 µM G7, ATP and substrate peptide
[3] = test system: T1, PRP4; assay: KINOMEscan; format: binding, human; conditions: 50000 nM
T1 construct: purchased DiscoveRx KINOMEscan

[4] = test system: EPHA2; assay: KINOMEscan; conditions: 50000 nM
Procedure: KINOMEscan™ selectivity screen
(§1) Briefly, Kinase-tagged T7 phage strains were grown in parallel in an E. coli host derived from the BL21 strain. E. coli were grown to log-phase and infected with T7 phage from a frozen stock and incubated with shaking at 32°C until lysis (90-150 minutes). The kinases were produced in HEK-293 cells and subsequently tagged with DNA for qPCR detection. Streptavidin-coated magnetic beads were treated with biotinylated small molecule ligands to generate affinity resins for kinase
(§2) inhibitor or DMSO control was performed in polypropylene 384-well plates for 1 hr at room temperature. After wash with PBS buffer containing 0.05% Tween 20, the beads were incubated in elution buffer (PBS containing 0.05 % Tween 20 and 0.5 μM non-biotinylated affinity ligand) for 30 minutes at room temperature. The kinase concentration in the eluates was measured by qPCR.

[5] = test system: PIK3CA(H1047Y); assay: KINOMEscan; conditions: 50000 nM
Procedure: KINOMEscan™ selectivity screen
(§3) The assay was perfor med at DiscoveRx Corporation according the methods published previously5. Briefly, Kinase-tagged T7 phage strains were grown in parallel in an E. coli host derived from the BL21 strain. E. coli were grown to log-phase and infected with T7 phage from a frozen stock and incubated with shaking at 32°C until lysis (90-150 minutes). The kinases were produced in HEK-293 cells and subsequently tagged with DNA for qPCR detection. Streptavidin-coated magnetic beads were treated with biotinylated small molecule ligands to generate affinity resins for kinase
as §2

[6] = test system: TGFBR1; assay: KINOMEscan; conditions: 50000 nM
Procedure: KINOMEscan™ selectivity screen
as §3, §2

[7] = test system: TIE2; assay: KINOMEscan; conditions: 50000 nM
Procedure: KINOMEscan™ selectivity screen
as §3, §2

[8] = test system: WEE1; assay: KINOMEscan; conditions: 50000 nM
Procedure: KINOMEscan™ selectivity screen
as §3, §2

[9] = test system: PCTK3; assay: KINOMEscan; conditions: 50000 nM
Procedure: KINOMEscan™ selectivity screen
as §3, §2

[10] = test system: TBK1; assay: KINOMEscan; conditions: 50000 nM
Procedure: KINOMEscan™ selectivity screen
as §3, §2

[11] = test system: AURKB; assay: KINOMEscan; conditions: 50000 nM
Procedure: KINOMEscan™ selectivity screen
as §3, §2

[12] = test system: CAMKK2; assay: KINOMEscan; conditions: 50000 nM
Procedure: KINOMEscan™ selectivity screen
as §3, §2

[13] = test system: CDK2; assay: KINOMEscan; conditions: 50000 nM
Procedure: KINOMEscan™ selectivity screen
as §1, §2

[14] = test system: NDR2; assay: KINOMEscan; conditions: 50000 nM
Procedure: as §1, §2

[15] = test system: MYO3A; assay: KINOMEscan; conditions: 50000 nM
Procedure: KINOMEscan™ selectivity screen
as §3, §2

[16] = test system: TIE1; assay: KINOMEscan; conditions: 50000 nM
Procedure: KINOMEscan™ selectivity screen
The assay was perfor med at DiscoveRx Corporation according the methods published previously5. […] The kinases were produced in HEK-293 cells and subsequently tagged with DNA for qPCR detection. Streptavidin-coated magnetic beads were treated with biotinylated small molecule ligands to generate affinity resins for kinase
as §2

[17] = test system: BMPR1B; assay: KINOMEscan; conditions: 50000 nM
Procedure: KINOMEscan™ selectivity screen
as §3, §2

[18] = test system: RIOK2; assay: KINOMEscan; conditions: 50000 nM
Procedure: KINOMEscan™ selectivity screen
as §3, §2

[19] = test system: PAK1; assay: KINOMEscan; conditions: 50000 nM
Procedure: KINOMEscan™ selectivity screen
as §3, §2

[20] = test system: CSNK1A1L; assay: KINOMEscan; conditions: 50000 nM
Procedure: KINOMEscan™ selectivity screen
as §3, §2

[21] = test system: PDPK1; assay: KINOMEscan; conditions: 50000 nM
Procedure: KINOMEscan™ selectivity screen
as §3, §2

[22] = test system: ALK(C1156Y); assay: KINOMEscan; conditions: 50000 nM
Procedure: KINOMEscan™ selectivity screen
as §3, §2

[23] = test system: NEK9; assay: KINOMEscan; conditions: 50000 nM
Procedure: KINOMEscan™ selectivity screen
as §3, §2

[24] = test system: PIKFYVE; assay: KINOMEscan; conditions: 50000 nM
Procedure: KINOMEscan™ selectivity screen
as §1, §2

[25] = test system: HUNK; assay: KINOMEscan; conditions: 50000 nM
Procedure: KINOMEscan™ selectivity screen
as §1, §2

[26] = test system: RET(M918T); assay: KINOMEscan; conditions: 50000 nM
Procedure: KINOMEscan™ selectivity screen
as §3, §2

[27] = test system: PIM2; assay: KINOMEscan; conditions: 50000 nM
Procedure: KINOMEscan™ selectivity screen
as §3, §2

[28] = test system: TRKA; assay: KINOMEscan; conditions: 50000 nM
Procedure: KINOMEscan™ selectivity screen
as §3, §2

[29] = test system: ABL1(F317L)-phosphorylated; assay: KINOMEscan; conditions: 50000 nM
Procedure: KINOMEscan™ selectivity screen
as §3, §2

[30] = test system: TAK1; assay: KINOMEscan; conditions: 50000 nM
Procedure: KINOMEscan™ selectivity screen
as §1, §2

[31] = test system: TRKC; assay: KINOMEscan; conditions: 50000 nM
Procedure: KINOMEscan™ selectivity screen
as §1, §2

[32] = test system: MERTK; assay: KINOMEscan; conditions: 50000 nM
Procedure: KINOMEscan™ selectivity screen
as §3, §2

[33] = test system: JAK1(JH2domain-pseudokinase); assay: KINOMEscan; conditions: 50000 nM
Procedure: KINOMEscan™ selectivity screen
as §3, §2

## Oc1cc(-c2ccccc2)c2ccccc2n1 [G7, 4-phenylquinolin-2(1H)-one]
[1]; Mus musculus, N2a, Neuro 2A cells, inhibitor 15 min before IGF, read-out: IC50
  IC50: ~20 µM
[1]; compared to that of 100 µM LY
  maximum inhibition: 50%
[2]
  effect on phosphorylation capability of activated Akt: No effects; also recorded: only negligible change
[3]
  Percent Control: 79%
[4]
  Percent Control: 100%
[5]
  Percent Control: 100%
[6]
  Percent Control: 100%
[7]
  Percent Control: 100%
[8]
  Percent Control: 100%
[9]
  Percent Control: 96%
[10]
  Percent Control: 95%
[11]
  Percent Control: 91%
[12]
  Percent Control: 90%
[13]
  Percent Control: 88%
[14]
  Percent Control: 88%
[15]
  Percent Control: 85%
[16]
  Percent Control: 84%
[17]
  Percent Control: 83%
[18]
  Percent Control: 83%
[19]
  Percent Control: 82%
[20]
  Percent Control: 81%
[21]
  Percent Control: 81%
[22]
  Percent Control: 80%
[23]
  Percent Control: 80%
[24]
  Percent Control: 74%
[25]
  Percent Control: 70%
[26]
  Percent Control: 70%
[27]
  Percent Control: 68%
[28]
  Percent Control: 65%
[29]
  Percent Control: 64%
[30]
  Percent Control: 61%
[31]
  Percent Control: 61%
[32]
  Percent Control: 42%
[33]
  Percent Control: 5.5%

From PMC5601486, “Identification of 4-phenylquinolin-2(1H)-one as a specific allosteric inhibitor of Akt” (Scientific Reports, 2017)
